Results taken from patent US10842892B2, “Methods and apparatus for synthesizing imaging agents, and intermediates thereof” (Lantheus Medical Imaging, Inc., priority 2010, dated 2020).
Values joined by “and” are separate entries in the source; they are usually repeats but may differ in a detail not shown here. Equal values may be shown once.

How the values were obtained:
normal rats and dogs = details: cited from earlier work
healthy adults = experiment: clinical safety evaluation after single dose at rest; format: in vivo, human; details: 13 healthy adults
Method: This was a non-randomized, open-label, single-dose study. A total of 13 healthy adult subjects were enrolled and administered a single dose of imaging agent 1 at a single study center in the United States. Subjects were screened within 14 days prior to enrollment to confirm subject eligibility, and began baseline assessments at the study center the day before study drug administration. Subjects remained at the study center until completion of the Study Day 2 safety assessments (24±8 hours post-dose). A telephone call was made to study subjects 48±8 hours post-dose for adverse event (AE) monitoring. All subjects returned to the study center approximately one week (5-7 days) post-dose for a follow-up safety visit, and were contacted by telephone approximately 14-17 days post-dose for final serious AE monitoring.

normal subjects = experiment: human safety, dosimetry, biodistribution and rest-stress myocardial imaging in normal subjects; format: in vivo
Method: 25 normal subjects were enrolled in 2 studies: 13 received 222 MBq I.V. At rest (R) only and 12 more subjects received 94 MBq at R and, on a second day, 124 MBq at peak adenosine stress (Adeno, n=6) or at peak treadmill exercise (Ex, n=6). Physical exam, laboratory, vital signs, ECG, and EEG were monitored pre- and post-injection. Myocardial (Myo), liver, blood pool and lung Standardized Uptake Values (SUV) were determined from sequential PET images over time. Mean dose for various organs and mean effective dose (ED in mSv/MBq) were estimated.

[1] = syringe component adsorption of imaging agent 1; format: physicochemical; details: B&D syringe, three hours
Method: To further identify the contact surface material that contributed to syringe retention of imaging agent 1, three additional B&D syringes were each filled with a 1 mL solution of imaging agent 1 then maintained at ambient temperature and humidity for a period of three hours. Following transfer of the individual doses as described in Example 1, the syringe barrel and butyl rubber tip plunger were then separated, measured for retained radioactivity and decay corrected. The difference in percent retained activity is statistically significant at the 95% confidence level (i.e. Prob>|t| 0.0017).

anesthetized naive dogs = experiment: cardiovascular changes in anesthetized naive dogs; format: in vivo, dog; details: intravenous injection, unpublished data
healthy volunteers = experiment: single-dose dosimetry and biodistribution trial in healthy subjects (MIRD); format: in vivo, human
Method: The following provides results obtained from a study regarding a single-dose dosimetry, biodistribution, and safety trial of imaging agent 1 in healthy subjects. Whole body PET image data for the 12 healthy volunteers were obtained using imaging agent 1 at approximately 10 minutes, 30 minutes, 50 minutes, 2 hours, 2.5 hours, 3.83 hours, and 4.5 hours post injection. Image data were attenuation corrected at the imaging site, and were quantified based on the Medical Internal Radiation Dose (MIRD) 16 methodology by Dosimetry Analysis Laboratory, CDE Dosimetry Services (CDE) to determine kinetic data in all organs showing significant uptake of activity. Dosimetry estimates were created via kinetic modeling of the quantified image data to determine residence times, and the standard MIRD methodology. These estimates were determined using 3 assumptions regarding urinary bladder voiding intervals (2.0, 3.5, and 4.8 hr). Kinetic data, residence times, and the dosimetry estimates are reported for individuals, and as summary statistics.

myocardial blood flow = details: humans, assumed, equivalent to prior studies; cited from earlier work
[2] = 12 healthy volunteers, voiding interval 3.5 hours
[3] = average, voiding interval 3.5 hours

## CC(C)(C)n1ncc(OCc2ccc(COCC[18F])cc2)c(Cl)c1=O [imaging agent 1, 2-t-butyl-4-chloro-5-[4-(2-(^18F)fluoroethoxymethyl)-benzyloxy]-2H-pyridazin-3-1]
Normal rats and dogs
  concentration (dose) inducing transit clinical signs (rapid and labored breathing, decreased activity, hunched posture, urination): ≥ 0.2 mg/kg
  dose at which these clinical signs were not observed: ≤ 0.1 mg/kg
Healthy adults
  changes from baseline in vital signs, laboratory values, ECGs and EEGs: not clinically significant
  potential cardiotoxicity (coagulation studies, Troponin-T levels): not exhibited
  tolerability: well-tolerated and no clinically significant safety concerns were raised
Normal subjects; 25 normal subjects
  adverse events: no adverse events related to the tracer
Normal subjects; 10 mins
  Adeno Myo SUV: 10.5 ± 1.5
  Adeno Myo/liver: 1.9 ± 0.6
  Exercise Myo SUV: 6.2 ± 2.1
  Exercise Myo/liver: 28.0 ± 33.6
  Rest Myo SUV: 3.9 ± 0.9
  Rest Myo/liver: 1.0 ± 0.3
Normal subjects; 30 mins
  Adeno Myo SUV: 10.8 ± 2.1
  Adeno Myo/liver: 2.0 ± 0.5
  Exercise Myo SUV: 5.5 ± 1.0
  Exercise Myo/liver: 5.6 ± 1.0
  Rest Myo SUV: 4.2 ± 1.1
  Rest Myo/liver: 0.9 ± 0.2
Normal subjects; 60 mins
  Adeno Myo SUV: 10.3 ± 2.1
  Adeno Myo/liver: 2.2 ± 0.5
  Exercise Myo SUV: 5.1 ± 0.9
  Exercise Myo/liver: 5.6 ± 1.3
  Rest Myo SUV: 4.5 ± 1.2
  Rest Myo/liver: 1.1 ± 0.2
Normal subjects; 90 mins
  Adeno Myo SUV: 9.6 ± 2.1
  Adeno Myo/liver: 2.6 ± 0.5
  Exercise Myo SUV: 4.9 ± 0.9
  Exercise Myo/liver: 5.8 ± 1.5
  Rest Myo SUV: 4.3 ± 1.3
  Rest Myo/liver: 1.4 ± 0.2
Normal subjects; 149 mins
  Adeno Myo SUV: 8.4 ± 2.1
  Adeno Myo/liver: 3.8 ± 1.0
  Exercise Myo SUV: 4.5 ± 0.8
  Exercise Myo/liver: 5.5 ± 1.5
  Rest Myo SUV: 4.1 ± 1.4
  Rest Myo/liver: 2.1 ± 0.3
Normal subjects; at rest (R)
  mean effective dose (ED): 0.019 mSv/MBq
Normal subjects; with adenosine stress (Adeno)
  mean effective dose (ED): 0.019 mSv/MBq
Normal subjects; with exercise (Ex)
  mean effective dose (ED): 0.015 mSv/MBq
[1]; Barrel
  Retained Activity in syringe part: 6.9% and 5.5% and 7.0%
[1]; Plunger (butyl rubber tip)
  Retained Activity in syringe part: 30.9% and 27.7% and 21.8%
Anesthetized naive dogs
  dose without cardiovascular changes (MAP, HR, left ventricular contractility etc): ≤ 0.01 mg/kg
Healthy volunteers; 12 healthy volunteers
  EDE (effective dose equivalent), Mean: 8.0E−02 rem/mCi
  absorbed dose estimate, Mean, Adrenals: 5.8E−02 rem/mCi
  absorbed dose estimate, Mean, Brain: 9.4E−02 rem/mCi
  absorbed dose estimate, Mean, Breasts: 3.2E−02 rem/mCi
  absorbed dose estimate, Mean, Gallbladder Wall: 6.4E−02 rem/mCi
  absorbed dose estimate, Mean, LLI Wall: 4.3E−02 rem/mCi
  absorbed dose estimate, Mean, Liver: 1.5E−01 rem/mCi
  absorbed dose estimate, Mean, Lungs: 4.2E−02 rem/mCi
  absorbed dose estimate, Mean, Muscle: 3.8E−02 rem/mCi
  absorbed dose estimate, Mean, Osteogenic Cells: 6.9E−02 rem/mCi
  absorbed dose estimate, Mean, Ovaries: 4.5E−02 rem/mCi
  absorbed dose estimate, Mean, Pancreas: 5.9E−02 rem/mCi
  absorbed dose estimate, Mean, Red Marrow: 6.0E−02 rem/mCi
  absorbed dose estimate, Mean, Salivary: 1.3E−01 rem/mCi
  absorbed dose estimate, Mean, Skin: 2.9E−02 rem/mCi
  absorbed dose estimate, Mean, Small Intestine: 4.7E−02 rem/mCi
  absorbed dose estimate, Mean, Spleen: 6.0E−02 rem/mCi
  absorbed dose estimate, Mean, Stomach Wall: 1.5E−01 rem/mCi
  absorbed dose estimate, Mean, Testes: 3.4E−02 rem/mCi
  absorbed dose estimate, Mean, Thymus: 4.1E−02 rem/mCi
  absorbed dose estimate, Mean, Thyroid: 1.2E−01 rem/mCi
  absorbed dose estimate, Mean, Total Body: 4.5E−02 rem/mCi
  absorbed dose estimate, Mean, ULI Wall: 4.7E−02 rem/mCi
  absorbed dose estimate, Mean, Urinary Bladder Wall: 8.4E−02 rem/mCi
  absorbed dose estimate, Mean, Uterus: 4.6E−02 rem/mCi
Healthy volunteers; [2]
  ED (effective dose), Mean: 0.071 rem/mCi and 7.1E−02 rem/mCi
  absorbed dose estimate, Mean, Heart Wall: 0.18 rem/mCi and 1.8E−01 rem/mCi
  absorbed dose estimate, Mean, Kidneys: 0.24 rem/mCi and 2.4E−01 rem/mCi
Healthy volunteers; average, 12 healthy volunteers
  peak uptake, kidneys: approximately 9.4 % of the injected activity
  peak uptake, liver: approximately 19.1 % of the injected activity
Healthy volunteers; [3]
  absorbed dose, heart wall: 0.048 mSv/MBq
  absorbed dose, kidneys: 0.066 mSv/MBq
Healthy volunteers; voiding interval 3.5 hours
  mean ED (effective dose): 0.019 mSv/MBq
Myocardial blood flow
  first pass extraction fraction: 0.94
